Assay results: ChEMBL document CHEMBL1201862, “PubChem BioAssay data set” (2004)
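96-well plates; 48 h exposure; 5 concentrations. Endpoints by linear interpolation between flanking doses. Not reached: highest tested concentration assigned. Abbreviation: GI50, concentration required for 50% inhibition of growth.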 The source made the active and inactive calls. No stated cut-off is given here; in the data, active = GI50 up to about 1.1 µM and inactive = higher.

Columns and labels:
Experiment in all cases: NCI tumour cell line growth inhibition, 48 h
Malme-3M = test system: Malme-3M
SK-MEL-5 = test system: SK-MEL-5
OVCAR-8 = test system: OVCAR-8
RPMI-8226 = test system: RPMI-8226
SNB-19 = test system: SNB-19
EKVX = test system: EKVX
UACC-62 = test system: UACC-62
TK-10 = test system: TK-10
SK-OV-3 = test system: SK-OV-3
SF-268 = test system: SF-268
RXF 393 = test system: RXF 393
MOLT-4 = test system: MOLT-4
LOX IMVI = test system: LOX IMVI
M14 = test system: M14
SF-295 = test system: SF-295
A549 = test system: A549
SK-MEL-2 = test system: SK-MEL-2

Measured: GI50

COc1ccc(C2(CN(C)C)COc3cc(OC)c(OC)cc3C2=O)cc1OC (configuration not stated)
inactive: Malme-3M > 100 µM | SK-MEL-5 24.1 µM | OVCAR-8 53.1 µM | RPMI-8226 23.5 µM | SNB-19 > 100 µM | EKVX > 100 µM | UACC-62 38.7 µM | TK-10 63.5 µM | SK-OV-3 > 100 µM | SF-268 > 100 µM | RXF 393 31.8 µM | MOLT-4 44.3 µM | LOX IMVI 16.6 µM | M14 89.3 µM | SF-295 92.9 µM | A549 69.8 µM

CCCCCCCCc1cc2c(O)c(c1)Cc1cc(CCCCCCCC)cc(c1O)Cc1cc(CCCCCCCC)cc(c1O)Cc1cc(CCCCCCCC)cc(c1O)Cc1cc(CCCCCCCC)cc(c1O)Cc1cc(CCCCCCCC)cc(c1O)C2
inactive: Malme-3M > 100 µM | OVCAR-8 > 100 µM | SNB-19 > 100 µM | SK-MEL-2 > 100 µM | UACC-62 > 100 µM | TK-10 > 100 µM | SK-OV-3 > 100 µM | SF-268 > 100 µM | MOLT-4 > 100 µM | LOX IMVI > 100 µM | M14 > 10 µM | SF-295 > 100 µM | A549 > 100 µM

CCN(CC)CC(=O)/C=C/c1ccc(C)cc1
inactive: Malme-3M 19.5 µM | SK-MEL-5 17.8 µM | OVCAR-8 20.1 µM | RPMI-8226 34.6 µM | SNB-19 15.1 µM | UACC-62 17.3 µM | TK-10 28.3 µM | SK-OV-3 29.2 µM | SF-268 27.9 µM | RXF 393 24.3 µM | MOLT-4 31.9 µM | LOX IMVI 18.5 µM | M14 17.4 µM | SF-295 32 µM | A549 27 µM

O=C1CC[C@@H](NC(=O)Cc2ccccc2)C(=O)N1
inactive: Malme-3M > 100 µM | SK-MEL-5 > 100 µM | OVCAR-8 > 100 µM | RPMI-8226 > 100 µM | SNB-19 > 100 µM | EKVX > 100 µM | SK-MEL-2 > 100 µM | UACC-62 > 100 µM | TK-10 > 100 µM | SK-OV-3 > 100 µM | SF-268 > 100 µM | MOLT-4 > 100 µM | LOX IMVI > 100 µM | M14 > 100 µM | SF-295 > 100 µM | A549 > 100 µM

CCC1CCC2CCCC(C)N12 (configuration not stated)
inactive: Malme-3M > 100 µM | OVCAR-8 > 100 µM | RPMI-8226 > 100 µM | SNB-19 > 100 µM | EKVX > 100 µM | SK-MEL-2 > 100 µM | UACC-62 > 100 µM | TK-10 > 100 µM | SF-268 > 100 µM | MOLT-4 > 100 µM | M14 > 100 µM | SF-295 > 100 µM | A549 > 100 µM

NCCOCn1cc(Cc2cccc(OCc3ccccc3)c2)c(=O)[nH]c1=O
inactive: SK-MEL-5 > 100 µM | OVCAR-8 > 100 µM | RPMI-8226 > 100 µM | SNB-19 > 100 µM | EKVX > 100 µM | SK-MEL-2 > 100 µM | UACC-62 > 100 µM | TK-10 > 100 µM | SK-OV-3 > 100 µM | MOLT-4 73.8 µM | LOX IMVI 39 µM | M14 > 100 µM | SF-295 > 100 µM | A549 > 100 µM

N#CC(/C(=N/NC(N)=S)C(=O)Nc1cccc(Cl)c1)c1ccccc1 (configuration not stated)
inactive: Malme-3M > 100 µM | SK-MEL-5 > 100 µM | OVCAR-8 > 100 µM | RPMI-8226 > 100 µM | SNB-19 > 100 µM | EKVX > 100 µM | SK-MEL-2 > 100 µM | UACC-62 > 100 µM | TK-10 > 100 µM | SK-OV-3 > 100 µM | SF-268 > 100 µM | MOLT-4 > 100 µM | M14 > 100 µM | SF-295 > 100 µM | A549 > 100 µM
